Data set [1] can be described thus: Antiinflammatory activity in mouse RAW264.7 cells assessed as inhibition of LPS-induced nitric oxide production after 24 hrs in presence of LPS by Griess assay. The following applies: RAW264.7, 24 h. The data set is classed as functional, cell-based. Background: Griess reagent forms a coloured azo dye with nitrite.
Data set [2] can be described thus: Cytotoxicity against mouse RAW264.7 cells assessed as cell survival rate at 200 uM after 24 hrs in absence of LPS by MTT assay. The format is toxicity. Particulars: read-out: Survival.
A short description of data set [3]: Cytotoxicity against mouse RAW264.7 cells assessed as cell survival rate at 200 uM after 24 hrs in presence of LPS by MTT assay. The data set is classed as toxicity. Particulars: read-out: Survival.

As usually defined, the IC50 is the concentration that gives 50% inhibition. In the case of `COc1ccc([C@@H]2CCc3ccc(O)cc3O2)cc1O[C@@H]1O[C@H](CO)[C@@H](O)[C@H](O)[C@H]1O`, in data set [1], the IC50 was 16.1 µM. The figures for the viability at 24 h, 200 µM in data set [2] and in data set [3] were 123% and 114%, respectively.
In the same order, the values of `COc1ccc2c(c1)O[C@H](c1ccccc1)[C@H](O)C2` are 17.3 µM, 119% and 104%.
The like results for `COc1ccc([C@@H]2CCc3ccc(O[C@@H]4O[C@H](CO)[C@@H](O)[C@H](O)[C@H]4O)cc3O2)cc1O` were, in that order, 21.5 µM, 104% and 116%.
In the case of `C[C@@H]1C[C@H]2[C@@H]3CCC4=CC(=O)C=C[C@]4(C)[C@@]3(F)[C@@H](O)C[C@]2(C)[C@@]1(O)C(=O)CO` [DEXAMETHASONE], the half-inhibitory concentration (IC50) in data set [1] turned out to be 0.63 µM. Besides, the viability at 24 h, 200 µM in data set [2] was 91%; in data set [3], 100%.

(Values after ChEMBL document CHEMBL3868605, “Flavans with potential anti-inflammatory activities from Zephyranthes candida” (Bioorg Med Chem Lett, 2016).)
